Data reported in article PMC8228600, “Design, Synthesis, In Vitro and In Vivo Evaluation of Heterobivalent SiFAlin-Modified Peptidic Radioligands Targeting Both Integrin αvβ3 and the MC1 Receptor—Suitable for the Specific Visualization of Melanomas?” (Pharmaceuticals, 2021).

Legend:
[1] = logD(7.4) determination (n-octanol / phosphate buffer distribution); assay type: physicochemical; conditions: n-octanol / 0.05 M phosphate buffer pH 7.4; mean ± SD
Experimental: Since high lipophilicity of peptidic radiotracers can lead to a high plasma protein binding, resulting in unspecific organ and high liver uptakes, thus negatively impact tumor visualization, the lipophilicity of the HBPLs was determined to get an approximate estimation of the in vivo biodistribution behavior of the radioligands. Therefore, the logD(7.4) values of the SiFAlin-modified HBPLs [^18F]1–[^18F]6 were determined via their distribution coefficient between n-octanol and phosphate buffer at pH 7.4.
The radiotracer solutions were first diluted with 0.9% NaCl solution to give a final EtOH concentration of <10%. A total of 5 MBq of the respective radiotracer in solution was added to 1.6 mL of a mixture of n-octanol and 0.05 M phosphate buffer (pH = 7.4) (v/v, 1/1), and the solution was vigorously shaken for 5 min. Subsequently, the phases were separated by centrifugation at 13.4 rpm for 2 min, and 100 μL of organic and aqueous phases were collected. The activity of each sample was measured using a gamma counter. The lipophilicity of each compound was determined in triplicate in three independent experiments.

[2] = Stability of radiotracers in human serum (radio-HPLC); assay type: in vitro ADME; conditions: 37 °C, 120 min, mean ± SD, read-out: Stability: intact radiotracer after 120 min of incubation in human serum
Experimental: In addition to the investigation of the radiotracers’ lipophilicity, their stability in human serum was evaluated in order to determine possible stability issues of the newly developed agents. For this purpose, the respective ^18F-labeled HBPLs were incubated in human serum at 37 °C for 120 min. The results of these experiments are summarized in Table 1, and the corresponding radio-HPLC chromatograms for [^18F]2 as representative examples for all compounds studied are depicted in Figure 3A (see Supplementary Materials, Figure S91 for the results obtained for the other radioligands). In Figure 3B, the portions of intact radiotracer over the course of the stability experiments are depicted.
The radiotracer solutions were first diluted with 0.9% NaCl solution to give a final EtOH concentration of <10%. Then, 6 × 25 μL radiotracer solution was added to 6 × 100 μL human serum and incubated at 37°C for 120 min. At defined time points (5, 15, 30, 60, 90 and 120 min), 125 μL EtOH was added to one of the mixtures and the precipitation of serum proteins was supported by ice-cooling for 2 min. After centrifugation at 13.4 rpm for 2 min, the supernatant was analyzed by analytical radio-HPLC (0–100% MeCN + 0.1% TFA in 5 min). The experiment was performed for each compound trice by three independent experiments.

Which logD [1] does the source give for CCCC[C@H](NC(=O)CNC(=O)CNC(=O)CCOCCOCCC(=O)NCCCN(CCCNC(=O)CCOCCOCCC(=O)NCCCC[C@@H]1NC(=O)[C@@H](Cc2ccccc2)NC(=O)[C@H](CC(=O)O)NC(=O)CNC(=O)[C@H](CCCNC(=N)N)NC1=O)CC(=O)N[C@@H](CCCCNC(=O)CCC[N+](C)(C)Cc1ccc([Si](F)(C(C)(C)C)C(C)(C)C)cc1)C(N)=O)C(=O)N[C@H]1CC(=O)NCCCC[C@@H](C(N)=O)NC(=O)[C@H](Cc2c[nH]c3ccccc23)NC(=O)[C@H](CCCNC(=N)N)NC(=O)[C@@H](Cc2ccccc2)NC(=O)[C@H](Cc2c[nH]cn2)NC1=O [[^18F]1] here?
Its logD is -1.08 ± 0.07.

And the remaining at 2 h [2]?
Its remaining at 2 h is 87 ± 2.3%.

What does the source list for CCCC[C@H](NC(=O)CNC(=O)CNC(=O)CCOCCOCCOCCOCCOCCOCCC(=O)NCCCN(CCCNC(=O)CCOCCOCCOCCOCCOCCOCCC(=O)NCCCC[C@@H]1NC(=O)[C@@H](Cc2ccccc2)NC(=O)[C@H](CC(=O)O)NC(=O)CNC(=O)[C@H](CCCNC(=N)N)NC1=O)CC(=O)N[C@@H](CCCCNC(=O)CCC[N+](C)(C)Cc1ccc([Si](F)(C(C)(C)C)C(C)(C)C)cc1)C(N)=O)C(=O)N[C@H]1CC(=O)NCCCC[C@@H](C(N)=O)NC(=O)[C@H](Cc2c[nH]c3ccccc23)NC(=O)[C@H](CCCNC(=N)N)NC(=O)[C@@H](Cc2ccccc2)NC(=O)[C@H](Cc2c[nH]cn2)NC1=O [[^18F]3]?
logD [1]: -1.15 ± 0.01; remaining at 2 h [2]: 81.4 ± 2.9%

With CCCC[C@H](NC(=O)CNC(=O)CNC(=O)COCC(=O)NCCCN(CCCNC(=O)COCC(=O)NCCCC[C@@H]1NC(=O)[C@@H](Cc2ccccc2)NC(=O)[C@H](CC(=O)O)NC(=O)CNC(=O)[C@H](CCCNC(=N)N)NC1=O)CC(=O)N[C@@H](CCCCNC(=O)CCC[N+](C)(C)Cc1ccc([Si](F)(C(C)(C)C)C(C)(C)C)cc1)C(N)=O)C(=O)N[C@H]1CC(=O)NCCCC[C@@H](C(N)=O)NC(=O)[C@H](Cc2c[nH]c3ccccc23)NC(=O)[C@H](CCCNC(=N)N)NC(=O)[C@@H](Cc2ccccc2)NC(=O)[C@H](Cc2c[nH]cn2)NC1=O [[^18F]5] as the compound, how does the logD [1] read?
Its logD is -1.21 ± 0.01.

What about the remaining at 2 h [2] of the same compound?
Its remaining at 2 h is 83.2 ± 2.4%.

With CCCC[C@H](NC(=O)CNC(=O)CNC(=O)[C@H](CCC(=O)O)NC(=O)CNC(=O)[C@H](CCC(=O)O)NC(=O)CNC(=O)[C@H](CCC(=O)O)NC(=O)C(=O)NCCCN(CCCNC(=O)C(=O)N[C@@H](CCC(=O)O)C(=O)NCC(=O)N[C@@H](CCC(=O)O)C(=O)NCC(=O)N[C@@H](CCC(=O)O)C(=O)NCCCC[C@@H]1NC(=O)[C@@H](Cc2ccccc2)NC(=O)[C@H](CC(=O)O)NC(=O)CNC(=O)[C@H](CCCNC(=N)N)NC1=O)CC(=O)N[C@@H](CCCCNC(=O)CCC[N+](C)(C)Cc1ccc([Si](F)(C(C)(C)C)C(C)(C)C)cc1)C(N)=O)C(=O)N[C@H]1CC(=O)NCCCC[C@@H](C(N)=O)NC(=O)[C@H](Cc2c[nH]c3ccccc23)NC(=O)[C@H](CCCNC(=N)N)NC(=O)[C@@H](Cc2ccccc2)NC(=O)[C@H](Cc2c[nH]cn2)NC1=O [[^18F]6] as the compound, how does the logD [1] read?
The logD was -1.52 ± 0.01.

What about the remaining at 2 h [2] of the same compound?
Its remaining at 2 h is 82.7 ± 1.8%.
